Reference: US12187709B2 (Genentech, Inc., priority 2021, dated 2025)

Legend:
Cbl-b = Cbl-b (Homo sapiens (Human), UniProt Q13191); experiment: Cbl-b LCK Ub TR-FRET assay (Cbl-b Lck HTRF); type: biochemical; details: for IC50: Cbl-b LCK Ub TR-FRET; for fold-selectivity (Cbl-b over C-cbl) / (fold-selectivity) Cbl-b and C-Cbl Selectivity: ratio C-cbl Lck HTRF IC50 / Cbl-b Lck HTRF IC50
Protocol: (§1) 6 μL of detection mixture was added to all wells and briefly centrifuged before incubating for 20 min at room temperature. […] IC50 was generated using no LCK as the low control and DMSO as the high control.

c-Cbl = c-Cbl (Homo sapiens (Human), UniProt P22681); experiment: C-Cbl LCK Ub TR-FRET assay (C-cbl Lck HTRF); type: biochemical
c-Cbl, sequence (P22681 47-435): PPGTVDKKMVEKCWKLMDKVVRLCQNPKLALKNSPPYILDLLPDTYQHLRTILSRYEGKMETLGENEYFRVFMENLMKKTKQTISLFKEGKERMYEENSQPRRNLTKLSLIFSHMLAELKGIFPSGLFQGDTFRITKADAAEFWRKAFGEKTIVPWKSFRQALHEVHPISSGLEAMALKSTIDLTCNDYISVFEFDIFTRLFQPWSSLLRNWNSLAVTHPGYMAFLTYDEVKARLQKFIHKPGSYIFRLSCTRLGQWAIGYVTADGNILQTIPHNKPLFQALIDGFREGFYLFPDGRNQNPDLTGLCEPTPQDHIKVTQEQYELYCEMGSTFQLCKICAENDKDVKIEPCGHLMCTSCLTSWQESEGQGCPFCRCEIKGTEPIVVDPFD
Protocol: as §1

Cbl-b, sequence (Q13191 40-426): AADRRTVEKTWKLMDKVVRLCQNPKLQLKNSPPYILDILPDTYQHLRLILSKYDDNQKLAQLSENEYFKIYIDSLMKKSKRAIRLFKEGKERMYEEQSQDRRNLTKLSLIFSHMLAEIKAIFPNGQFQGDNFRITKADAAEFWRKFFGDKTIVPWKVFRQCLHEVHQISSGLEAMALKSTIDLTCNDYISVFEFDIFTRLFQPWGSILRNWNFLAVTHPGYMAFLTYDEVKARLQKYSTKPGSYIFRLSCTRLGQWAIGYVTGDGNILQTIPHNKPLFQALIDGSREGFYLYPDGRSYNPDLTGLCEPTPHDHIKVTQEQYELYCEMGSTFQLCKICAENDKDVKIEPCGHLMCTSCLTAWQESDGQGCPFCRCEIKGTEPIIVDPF

How did the IC50 (Cbl-b) turn out when `Cn1cnnc1[C@H](c1cccc(N2Cc3c(cc(CNC4(C)CCC4)cc3C(F)(F)F)C2=O)c1)C1CCS(=O)(=O)CC1` [Compound 300, (S)-2-(3-((1,1-dioxidotetrahydro-2H-thiopyran-4-yl)(4-methyl-4H-1,2,4-triazol-3-yl)methyl)phenyl)-6-(((1-methylcyclobutyl)amino)methyl)-4-(trifluoromethyl)isoindolin-1-one] was run?
Its IC50 is 8700 nM.

What about the “fold-selectivity (Cbl-b over C-cbl)” value (Cbl-b) of the same molecule?
Its value is 2.0x.

And the IC50 (c-Cbl)?
The IC50 was 17000 nM.

Which results are given for `C[C@@H](NC1CCC1)c1cc2c(c(C(F)(F)F)c1)CN(c1cccc(C3(c4nncn4C)CC(F)(F)C3)c1)C2=O` (single isomer, unassigned) [Compound 38]?
IC50 (Cbl-b): 11 nM; fold-selectivity (Cbl-b over C-cbl) (Cbl-b): (2.9x); IC50 (c-Cbl): 32 nM

For `CO[C@H]1C[C@](c2cccc(N3Cc4c(cc(CNC5(C)COC5)cc4C(F)(F)F)C3=O)c2)(c2nncn2C)C1` [Compound 479, 2-(3-((1r,3r)-3-methoxy-1-(4-methyl-4H-1,2,4-triazol-3-yl)cyclobutyl)phenyl)-6-(((3-methyloxetan-3-yl)amino)methyl)-4-(trifluoromethyl)isoindolin-1-one], which IC50 (Cbl-b; Example 121) is on record?
Its IC50 is 29 nM.

What about the “(fold-selectivity) Cbl-b and C-Cbl Selectivity” value (Cbl-b) of the same molecule?
The value was 8.6x.

What about the IC50 (c-Cbl) of the same molecule?
Its IC50 is 250 nM.

How did the IC50 (Cbl-b; Example 121) turn out when `Cn1cnnc1[C@H](c1cccc(N2Cc3c(cc(CNC4(C)CCC4)cc3C(F)F)C2=O)c1)C1CC(F)C1` (stereo partly drawn) [Compound 460, 4-(difluoromethyl)-2-(3-((S)-((1r,3S)-3-fluorocyclobutyl)(4-methyl-4H-1,2,4-triazol-3-yl)methyl)phenyl)-6-(((1-methylcyclobutyl)amino)methyl)isoindolin-1-one] was run?
The IC50 was 610 nM.

And the “(fold-selectivity) Cbl-b and C-Cbl Selectivity” value (Cbl-b)?
The value was 6.4x.

What about the IC50 (c-Cbl) of the same molecule?
Its IC50 is 3900 nM.

For `Cn1ccnc1[C@H](c1cccc(N2Cc3c(cc(CNC4(C)CCC4)cc3C(F)(F)F)C2=O)c1)C1COC1` (single isomer, unassigned) [Compound 353], which IC50 (Cbl-b) is on record?
The IC50 was 9600 nM.

What about the “fold-selectivity (Cbl-b over C-cbl)” value (Cbl-b) of the same molecule?
Its value is 2.1x.

What about the IC50 (c-Cbl) of the same molecule?
The IC50 was 20000 nM.

With `CCNc1cc([C@]2(c3nncn3C)C[C@@H](C)C2)cc(N2Cc3c(cc(CNC4(C)CCC4)cc3C(F)(F)F)C2=O)n1` [Compound 5, 2-(6-(ethylamino)-4-((1s,3s)-3-methyl-1-(4-methyl-4H-1,2,4-triazol-3-yl)cyclobutyl)-pyridin-2-yl)-6-(((1-methylcyclobutyl)amino)methyl)-4-(trifluoromethyl)isoindolin-1-one] as the molecule, how does the IC50 (Cbl-b) read?
The IC50 was 7.1 nM.

And the “fold-selectivity (Cbl-b over C-cbl)” value (Cbl-b)?
Its value is “(0.64x)”.

What about the IC50 (c-Cbl) of the same molecule?
The IC50 was 4.5 nM.

`Cn1cnnc1[C@](O)(c1cccc(N2Cc3c(cc(CNC4(C)CCC4)cc3C(F)(F)F)C2=O)c1)C(F)(F)F` [Compound 307, (R)-6-(((1-methylcyclobutyl)amino)methyl)-2-(3-(2,2,2-trifluoro-1-hydroxy-1-(4-methyl-4H-1,2,4-triazol-3-yl)ethyl)phenyl)-4-(trifluoromethyl)isoindolin-1-one] was tested. Which IC50 (Cbl-b) did it give?
Its IC50 is 7600 nM.

What about the “fold-selectivity (Cbl-b over C-cbl)” value (Cbl-b) of the same molecule?
Its value is 1.5x.

What about the IC50 (c-Cbl) of the same molecule?
The IC50 was 12000 nM.

With `CC(C)[C@@](O)(c1cccc(N2Cc3c(cc(CNC4(C)CCC4)cc3C(F)(F)F)C2=O)c1)c1nncn1C` [Compound 309, (R)-2-(3-(1-hydroxy-2-methyl-1-(4-methyl-4H-1,2,4-triazol-3-yl)propyl)phenyl)-6-(((1-methylcyclobutyl)amino)methyl)-4-(trifluoromethyl)isoindolin-1-one] as the molecule, how does the IC50 (Cbl-b) read?
Its IC50 is 5300 nM.

And the “fold-selectivity (Cbl-b over C-cbl)” value (Cbl-b)?
Its value is 3.8x.

What about the IC50 (c-Cbl) of the same molecule?
Its IC50 is 20000 nM.

What does the source list for `Cn1cnnc1[C@@H](CC1CCC1)c1cccc(N2Cc3c(cc(CNC4(C)CCC4)cc3C(F)(F)F)C2=O)c1` [Compound 269, (S)-2-(3-(2-cyclobutyl-1-(4-methyl-4H-1,2,4-triazol-3-yl)ethyl)phenyl)-6-(((1-methylcyclobutyl)amino)methyl)-4-(trifluoromethyl)isoindolin-1-one]?
IC50 (Cbl-b): 76 nM; fold-selectivity (Cbl-b over C-cbl) (Cbl-b): 4.0x; IC50 (c-Cbl): 300 nM

Which IC50 (Cbl-b) does the source give for `Cn1cnnc1C(c1cccc(N2Cc3c(cc(CNC4(C)CCC4)cc3C(F)(F)F)C2=O)c1)[C@H]1C[C@@H](Cl)C1` (single isomer, unassigned) [Compound 354] here?
Its IC50 is 70 nM.

And the “fold-selectivity (Cbl-b over C-cbl)” value (Cbl-b)?
Its value is 8.3x.

What about the IC50 (c-Cbl) of the same molecule?
The IC50 was 580 nM.
